Experimental data taken from PubChem BioAssay AID1963429 (Molecular Pharmacology Branch, DTP, NCI, 2024).

Test system: 126254-015-R-J1-PDC complex spheroid growth, % test/control
Test: Anticancer human tumor 126254-015-R-J1-PDC patient-derived soft tissue sarcoma cell line growth inhibition [Asc]
Conditions: for IC50: curve of first compound; for viability, T/C: stronger effect = lower value
In short: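 Spheroid model: tumor line + HUVEC + hMSC. Single agents and combinations; top conc. at/near clinical Cmax (10 microM if undetermined), half-log dilutions. DMSO stocks at 800-fold test concentration.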

[1] = second compound 0.03 µM, first compound 0.0316 µM
[2] = second compound 0.03 µM, first compound 0.1 µM
[3] = second compound 0.0949 µM, first compound 0.0316 µM
[4] = second compound 0.0949 µM, first compound 0.1 µM
[5] = second compound 0.3 µM, first compound 0.0316 µM
[6] = second compound 0.3 µM, first compound 0.1 µM
[7] = second compound 0.949 µM, first compound 0.0316 µM
[8] = second compound 0.949 µM, first compound 0.1 µM
[9] = second compound 3 µM, first compound 0.0316 µM
[10] = second compound 3 µM, first compound 0.1 µM
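Also: spheroids exposed to compound for seven days.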
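For viability, T/C in this document: 100% = DMSO vehicle control wells.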

`Cc1nc(N2CCC3(CC2)COC(C)C3N)c(CO)nc1Sc1ccnc(N)c1Cl` (stereo not given) + CNC(C)C(=O)NC1CN(S(=O)(=O)c2cccc(S(=O)(=O)N3CCC4CCC(C(=O)NC(c5ccccc5)c5ccccc5)N4C(=O)C(NC(=O)C(C)NC)C3)c2)CCC2CCC(C(=O)NC(c3ccccc3)c3ccccc3)N2C1=O was tested, and the IC50 (second compound 0.01 µM) was 2520 nM, the IC50 (second compound 0.0316 µM) was 893 nM and the IC50 (second compound 0.1 µM) was 443 nM. The IC50 (second compound 0.316 µM) was 264 nM, the IC50 (second compound 1 µM) was 196 nM and the viability, T/C (second compound 0.01 µM, first compound 0.00949 µM) was 93.8%. For the same molecule, the viability, T/C (second compound 0.01 µM, first compound 0.03 µM) was 91.4%, the viability, T/C (second compound 0.01 µM, first compound 0.0949 µM) was 76.8% and the viability, T/C (second compound 0.01 µM, first compound 0.3 µM) was 65.9%. For the same molecule, the viability, T/C (second compound 0.01 µM, first compound 0.949 µM) was 63.4%, the viability, T/C (second compound 0.01 µM, first compound 3 µM) was 46.8% and the viability, T/C (second compound 0.0316 µM, first compound 0.00949 µM) was 76%. It also gave a viability, T/C (second compound 0.0316 µM, first compound 0.03 µM) of 73.8%, a viability, T/C (second compound 0.0316 µM, first compound 0.0949 µM) of 67.9% and a viability, T/C (second compound 0.0316 µM, first compound 0.3 µM) of 67.5%. It also gave a viability, T/C (second compound 0.0316 µM, first compound 0.949 µM) of 48.4%, a viability, T/C (second compound 0.0316 µM, first compound 3 µM) of 42.2% and a viability, T/C (second compound 0.1 µM, first compound 0.00949 µM) of 72.7%. The viability, T/C (second compound 0.1 µM, first compound 0.03 µM) was 63%, the viability, T/C (second compound 0.1 µM, first compound 0.0949 µM) was 57.6% and the viability, T/C (second compound 0.1 µM, first compound 0.3 µM) was 52.5%. For the same molecule, the viability, T/C (second compound 0.1 µM, first compound 0.949 µM) was 49.4%, the viability, T/C (second compound 0.1 µM, first compound 3 µM) was 35.5% and the viability, T/C (second compound 0.316 µM, first compound 0.00949 µM) was 57.8%. For the same molecule, the viability, T/C (second compound 0.316 µM, first compound 0.03 µM) was 55.4%, the viability, T/C (second compound 0.316 µM, first compound 0.0949 µM) was 56.3% and the viability, T/C (second compound 0.316 µM, first compound 0.3 µM) was 52.1%. The viability, T/C (second compound 0.316 µM, first compound 0.949 µM) was 38.6%, the viability, T/C (second compound 0.316 µM, first compound 3 µM) was 41.9% and the viability, T/C (second compound 1 µM, first compound 0.00949 µM) was 57.6%. It also gave a viability, T/C (second compound 1 µM, first compound 0.03 µM) of 59.6%, a viability, T/C (second compound 1 µM, first compound 0.0949 µM) of 59.6% and a viability, T/C (second compound 1 µM, first compound 0.3 µM) of 44.7%. The viability, T/C (second compound 1 µM, first compound 0.949 µM) was 30% and the viability, T/C (second compound 1 µM, first compound 3 µM) was 33.5%.

With `NC1CCC(NC2CC2c2ccccc2)CC1` (stereo not given) + CCN1C(C(=O)NC23CCC(C(=O)O)(CC2)CC3)C(c2cccc(Cl)c2F)C2(C(=O)Nc3cc(Cl)ccc32)C12CCCCC2 the IC50 (second compound 0.03 µM) was greater than 100 nM, the IC50 (second compound 0.0949 µM) was greater than 100 nM and the IC50 (second compound 0.3 µM) was greater than 100 nM. For the same molecule, the IC50 (second compound 0.949 µM) was greater than 100 nM, the IC50 (second compound 3 µM) was greater than 100 nM and the viability, T/C (second compound 0.03 µM, first compound 0.000316 µM) was 94.7%. It also gave a viability, T/C (second compound 0.03 µM, first compound 0.001 µM) of 97.4%, a viability, T/C (second compound 0.03 µM, first compound 0.00316 µM) of 99.1% and a viability, T/C (second compound 0.03 µM, first compound 0.01 µM) of 93.1%. For the same molecule, the viability, T/C [1] was 79.7%, the viability, T/C [2] was 83.1% and the viability, T/C (second compound 0.0949 µM, first compound 0.000316 µM) was 85.6%. For the same molecule, the viability, T/C (second compound 0.0949 µM, first compound 0.001 µM) was 81%, the viability, T/C (second compound 0.0949 µM, first compound 0.00316 µM) was 93% and the viability, T/C (second compound 0.0949 µM, first compound 0.01 µM) was 83.5%. The viability, T/C [3] was 75.5%, the viability, T/C [4] was 85.9% and the viability, T/C (second compound 0.3 µM, first compound 0.000316 µM) was 87.3%. For the same molecule, the viability, T/C (second compound 0.3 µM, first compound 0.001 µM) was 89.4%, the viability, T/C (second compound 0.3 µM, first compound 0.00316 µM) was 82.7% and the viability, T/C (second compound 0.3 µM, first compound 0.01 µM) was 79.7%. For the same molecule, the viability, T/C [5] was 78.3%, the viability, T/C [6] was 88.4% and the viability, T/C (second compound 0.949 µM, first compound 0.000316 µM) was 90.1%. The viability, T/C (second compound 0.949 µM, first compound 0.001 µM) was 92.3%, the viability, T/C (second compound 0.949 µM, first compound 0.00316 µM) was 97% and the viability, T/C (second compound 0.949 µM, first compound 0.01 µM) was 82.5%. It also gave a viability, T/C [7] of 81.5%, a viability, T/C [8] of 83.7% and a viability, T/C (second compound 3 µM, first compound 0.000316 µM) of 90%. The viability, T/C (second compound 3 µM, first compound 0.001 µM) was 96.9%, the viability, T/C (second compound 3 µM, first compound 0.00316 µM) was 78.1% and the viability, T/C (second compound 3 µM, first compound 0.01 µM) was 74.5%. It also gave a viability, T/C [9] of 84.1% and a viability, T/C [10] of 85.2%.

Molecule `C=CC(=O)N1CCN(c2nc(=O)n(-c3c(C)ccnc3C(C)C)c3nc(-c4c(O)cccc4F)c(F)cc23)C(C)C1` (stereo not given) + CCN1C(C(=O)NC23CCC(C(=O)O)(CC2)CC3)C(c2cccc(Cl)c2F)C2(C(=O)Nc3cc(Cl)ccc32)C12CCCCC2 has an IC50 (second compound 0.03 µM) greater than 10000 nM, an IC50 (second compound 0.0949 µM) greater than 10000 nM and an IC50 (second compound 0.3 µM) greater than 10000 nM. For the same molecule, the IC50 (second compound 0.949 µM) was greater than 10000 nM, the IC50 (second compound 3 µM) was greater than 10000 nM and the viability, T/C [1] was 94.8%. It also gave a viability, T/C [2] of 114%, a viability, T/C (second compound 0.03 µM, first compound 0.316 µM) of 106% and a viability, T/C (second compound 0.03 µM, first compound 1 µM) of 103%. It also gave a viability, T/C (second compound 0.03 µM, first compound 3.16 µM) of 114%, a viability, T/C (second compound 0.03 µM, first compound 10 µM) of 89% and a viability, T/C [3] of 110%. The viability, T/C [4] was 92.6%, the viability, T/C (second compound 0.0949 µM, first compound 0.316 µM) was 98.1% and the viability, T/C (second compound 0.0949 µM, first compound 1 µM) was 104%. It also gave a viability, T/C (second compound 0.0949 µM, first compound 3.16 µM) of 111%, a viability, T/C (second compound 0.0949 µM, first compound 10 µM) of 88.5% and a viability, T/C [5] of 98.4%. For the same molecule, the viability, T/C [6] was 121%, the viability, T/C (second compound 0.3 µM, first compound 0.316 µM) was 106% and the viability, T/C (second compound 0.3 µM, first compound 1 µM) was 112%. For the same molecule, the viability, T/C (second compound 0.3 µM, first compound 3.16 µM) was 105%, the viability, T/C (second compound 0.3 µM, first compound 10 µM) was 98.5% and the viability, T/C [7] was 94.9%. It also gave a viability, T/C [8] of 109%, a viability, T/C (second compound 0.949 µM, first compound 0.316 µM) of 106% and a viability, T/C (second compound 0.949 µM, first compound 1 µM) of 120%. The viability, T/C (second compound 0.949 µM, first compound 3.16 µM) was 110%, the viability, T/C (second compound 0.949 µM, first compound 10 µM) was 84.2% and the viability, T/C [9] was 109%. For the same molecule, the viability, T/C [10] was 109%, the viability, T/C (second compound 3 µM, first compound 0.316 µM) was 106% and the viability, T/C (second compound 3 µM, first compound 1 µM) was 109%. It also gave a viability, T/C (second compound 3 µM, first compound 3.16 µM) of 109% and a viability, T/C (second compound 3 µM, first compound 10 µM) of 93.2%.
